The source of these data is patent US20250255293A1, “TISSUE DECONTAMINATION AND PRESERVATION SYSTEM” (priority 2024, published 2025).

The subject of this assay is chondrocytes of osteoarticular fracture fragments. Put plainly: Viable chondrocyte density, live-dead calcein AM / ethidium homodimer assay (Example 3). To be noted: for Viable Chondrocyte Density, mean (SD): 20 min immersion (10% povidone-iodine or 0.002% chlorhexidine). Format: cell-based, canine. From the text:
Purpose-bred hounds (n=16) were humanely euthanized, immediately after which an open articular fracture in both elbows (n=32) was created using a captive bolt pistol. Each dog was positioned in sternal recumbency with one forelimb extended and secured in a custom made positioning apparatus. Fur was not clipped and no aseptic preparation or techniques were implemented. A captive bolt stunner pistol with a 4.75-inch penetrating pin and 1.25 grain cartridge was centered on the cranial (anterior) aspect of the distal humerus, immediately proximal to the joint. With firm pressure against the secured elbow, the pistol was discharged, and the procedure was repeated for the contralateral elbow. Soft tissues were removed aseptically and the distal humerus (n=32), proximal radius (n=32), and trochlea (n=32) were osteotomized and processed under operating room conditions in 1 of 3 ways: 1) Betadine ([…]): 0.9% saline irrigation (1 L), 10% povidone-iodine solution immersion (20 min), saline irrigation; 2) Chlorhexidine (n=42): saline irrigation, 0.002% chlorhexidine solution immersion (20 min), saline irrigation; 3) Control (n=12): untreated. Each osteoarticular fragment was placed in 200 ml of MOPS® solution (500 ml DMEM, 5 ml ITS (insulin (10 mg/L), transferrin 55 mg/L), selenium (6.7 μg/L)), 5 ml total penicillin (100 U/ml), streptomycin (100 μg/ml), amphotericin B (2.5 μg/ml), 5 ml L-glutamine (2 mM), 5 ml non-essential amino acids (0.1 mM), 1 ml ascorbic acid (50 ng/ml), and 5.46 ml dexamethasone (0.1 μM)) in a sterile container and stored under standard room temperature and humidity conditions for 7 (n=46) or 14 (n=48) days. At each time point, viable chondrocyte density (VCD) and quantitative microbial culture assessments were assayed, yielding a count of colony forming units (CFU) per specimen.
Viable chondrocyte density (VCD) was evaluated using a live-dead calcein AM (live stain) and ethidium homodimer (dead stain) assay, as previously described (Cook, et al., Am. J. Sports Med. 44:1260-1268, 2016). A minimum of two images from each osteochondral fragment were assessed via fluorescent microscopy. The VCD was determined by counting the number of viable cells in each image and dividing this by the area of the tissue in the image (#of viable cells/area of cartilage tissue mm^2). This methodology was aimed at providing an objective and quantifiable assessment of cell viability post-treatment.
Univariate comparison of VCD and CFU were performed via Kruskal-Wallis and Chi-squared test. Multivariate linear regression was used, controlling for osteotomy site and storage time, to determine the correlation between processing method and VCD or CFU. Data manipulation and statistical analysis were performed using R software.

SMILES strings stand for the structures.

Consider `[H]/N=C(\N/C(=N/[H])NCCCCCCNC(=N)NC(=N)Nc1ccc(Cl)cc1)Nc1ccc(Cl)cc1` [Chlorhexidine, chlorhexidine gluconate], for which the “mean VCD” value is on record as 772 (at 7 days) and 710 (at 14 days). The “increase of VCD relative to control treatment” value (multivariate linear regression, controlling for storage timing and osteotomy site) is given as 377 VCD. For the same molecule, for the setting “saline irrigation, 0.002% chlorhexidine immersion, room temperature storage in MOPS”, the “maintenance of chondrocyte viability (in words)” value is listed as “maintaining chondrocyte viability for up to 14 days”. Further, the “Viable Chondrocyte Density, mean (SD)” value runs as follows: (storage time 7 days in MOPS at room temperature) 772.3 (257.0) mm^−2; (storage time 14 days in MOPS at room temperature) 709.5 (338.0) mm^−2.
